Results reported in US12507721B2, “Ready-to-use parenteral nutrition formulation” (BAXTER INTERNATIONAL INC., priority 2021, dated 2025).

What was measured:
[1] = Studies of vitamin B12 in lipid emulsions irrespective of oil source, pH or stabilizing agent; format: physicochemical
Protocol: (storage for 3 months at 40° C.), even though hydroxocobalamin seems to remain relatively stable for about 6 months at 40° C.

[2] = Storage of Glucose Batch 1 at 40° C./25% RH for 6 months; format: physicochemical; conditions: sterilization cycles of Example 7
Protocol: In a next step, the stability of vitamin B12 was examined in Glucose Batch 1 which seemed to be the most promising based on the results shown in Table 7. Accordingly, several bags were stored at 40° C./25% RH for 6 months (T6M). Batch Glucose 1 was analyzed at T6M to revisit the presence of vitamin B12 in either its cyanocobalamin or hydroxocobalamin form. In order to test the validity of the test, vitamins B1, B3 and B6 were tested together with vitamin B12 both after sterilization and then throughout shelf life.

[3] = Vitamin stability in 35% glucose solution during sterilization and storage; format: physicochemical; conditions: for Unsterilized T0 concentration / T1M40° C. concentration / T3M40° C. concentration / Cycle 3 T0 concentration / T6M40° C. concentration / Cycle 4 T0 concentration: 35% glucose solution; for T1M40° C. concentration: 1 month at 40° C.; for T3M40° C. concentration: 3 months at 40° C.; for Cycle 3 T0 concentration: C0 = 25 minutes; for Cycle 3 T0 concentration / Cycle 4 T0 concentration: after sterilization; for T6M40° C. concentration: 6 months at 40° C., B12 value (*) is the sum of cyanocobalamin and hydroxocobalamin; for Cycle 4 T0 concentration: C0 = 19 minutes
Protocol: For testing the stability of vitamin B12 in formulation as they are typically used in parenteral nutrition, a 35% glucose solution, a 14.2% amino acid formulation such as found, for example, in Olimel N9E (Baxter), and a 20% lipid emulsion such as found in Clinoleic 20% (Baxter) were supplemented with different vitamin combinations which always included vitamin B12. KCl was added into the glucose solution to understand if it has an effect on the stability of vitamin B12. Vitamin B1 was introduced as thiamin HCl. Ascorbyl palmitate was added to the lipid emulsion formulation as a stabilizing agent due to its antioxidant properties. In addition, two separate micellar solutions (“Vit A” and “Vit B”, see Table 9) comprising certain vitamins to be assessed with regard to degradation (B3, B6, B8, B9, B12, C) but formulated with different excipients as micellization agents were tested for vitamin B12 stability. Vit A consisted of a solution of mixed micelles with ascorbyl palmitate as a potential stability enhancer. Vit B was formulated with a mix of polysorbates, PEG and sorbitol to form micelles. The micellar solutions were prepared by mixing, under high speed, a solution composed of glycocholic acid and lecithins dissolved in water. In case of Vit B, the glycocholic acid and lecithin were replaced by PEG and polysorbate. All formulations were provided in standard flexible containers and overpouched with an aluminum overpouch for subsequent sterilization. For an overview over formulations and conditions see Table 9.
All samples were submitted to two different sterilization technologies. Steam sterilization targeting a F0=8 min was used for large volumes (400/800 ml, Cycle 2) and for small volumes (25/50 ml, Cycle 1) as lined out in Table 9 above. The same samples were sterilized by water spray sterilization with a serial tower continuous sterilization equipment with two different exposure times (Cycles 3 (25 min.) and 4 (19 min.)).
The vitamin recovery was then compared between the different sterilization cycles and formulations to understand the impact of the formulation and the sterilization technology used on their respective short- and long-term stability. Therefore, after sterilization, the samples were stored at 40° C./25% RH for 6 months to evaluate the recovery of vitamin B12 at T1M, T3M and T6M. Besides, backup samples were stored at 5° C. Finally, some samples were also stored at 25° C./40% RH to provide for real time stability data.

[4] = Selenium stability in trace element solutions with selenate, selenomethionine or selenite; conditions: for selenium concentration during storage: TE formulation pH 2.2, heat sterilized, conditions not optimized for DO, FIGS. 9-11
Protocol: (§1) Timepoint 0 corresponds to the results of TE dosage right after sterilization. […] Timepoints 1, 3 and 6 correspond to the results of TE dosage after 1 month, 3 months and 6 months storage at 40° C./25% RH.
as §1, §1
For the three tested solutions containing different forms of selenium, the selenium is mixed with other TE (Zn, Cu, Mn, F, I, Mo, Cr, Fe), which were introduced as chloride salts. The solutions were acidified to pH 2.2 using malic acid and underwent terminal heat sterilization prior to storage.

[5] = Impact of DO on selenium stability; mix of 9 trace elements; format: physicochemical; conditions: sterilized samples stored at 40° C., FIG. 5
Protocol: The impact of oxygen seems of major importance in the stability of selenite containing trace element formulations. […] To confirm this hypothesis, a regression test was performed between Se assay results and log(dissolved oxygen results). Only sterilized samples stored at 40° C. were considered as the sterilization and storage at high temperature seem to both increase the Se degradation.
The presence of oxygen promotes selenite stability. To ensure that it is not deleterious to another TE the stability of a mix of the 9 TE of interest (i.e. Zn, Cu, Cr, Mo, Mn, Fe, I, F & Se) was evaluated at pH 2.2 with 200 mM of malic acid (to ensure iodide stability) and stored in a glass bottle (so containing about 3 ppm of dissolved oxygen). The solution was heat sterilized and stored 6 months at 40° C. or 5° C. (T6M 40° C. and T6M 5° C., respectively).

[6] = pediatric PN formulation stored at 25° C.; cited from earlier work
[7] = 25 ml, Cycle 1 steam sterilization
[8] = 800 ml, Cycle 2 steam sterilization
[9] = 800 ml, Cycle 3 water spray sterilization
[10] = 800 ml, Cycle 4 water spray sterilization

For `C/C1=C2/[N-][C@H]([C@H](CC(N)=O)[C@@]2(C)CCC(=O)NC[C@@H](C)OP(=O)([O-])O[C@H]2[C@@H](O)[C@@H](n3cnc4cc(C)c(C)cc43)O[C@@H]2CO)[C@]2(C)N=C(/C(C)=C3N=C(/C=C4N=C1[C@@H](CCC(N)=O)C\4(C)C)[C@@H](CCC(N)=O)[C@]\3(C)CC(N)=O)[C@@H](CCC(N)=O)[C@]2(C)CC(N)=O.[Co+3].[OH-]` [B12 HC, hydroxocobalamin], the “time remaining relatively stable” value ([1]; at 40° C.) was “about 6 months”.

For `Cc1ncc(C[n+]2csc(CCO)c2C)c(N)n1` [Batch B1, thiamine], the degradation during sterilization [2] was “no significant degradation”.

In the case of `NC(=O)c1cccnc1` [Batch B3, Nicotinamide], the “Unsterilized T0 concentration” value ([3]; 25 ml (Table 10A)) was 51.10 mg/L, the “T1M40° C. concentration” value [3, 7] was 49.30 mg/L and the “T3M40° C. concentration” value [3, 7] was 50.20 mg/L. The “Unsterilized T0 concentration” value ([3]; 800 ml (Table 10B)) was 51.10 mg/L, the “Unsterilized T0 concentration” value ([3]; 800 ml (Table 11A)) was 52.80 mg/L and the “Unsterilized T0 concentration” value ([3]; 800 ml (Table 11B)) was 52.80 mg/L. The “T1M40° C. concentration” value [3, 8] was 50.60 mg/L, the “T3M40° C. concentration” value [3, 8] was 51.20 mg/L and the “Cycle 3 T0 concentration” value [3, 9] was 50.50 mg/L. The “T3M40° C. concentration” value [3, 9] was 50.30 mg/L, the “T6M40° C. concentration” value [3, 9] was 48.27 mg/L and the “Cycle 4 T0 concentration” value [3, 10] was 50.40 mg/L. For the same molecule, the “T3M40° C. concentration” value [3, 10] was 51.00 mg/L, the “T6M40° C. concentration” value [3, 10] was 49.35 mg/L and the degradation during sterilization [2] was “no significant degradation”.

In the case of `Cc1ncc(CO)c(CO)c1O` [Batch B6, pyridoxine], the “Unsterilized T0 concentration” value ([3]; 25 ml (Table 10A)) was 6.40 mg/L, the “T1M40° C. concentration” value [3, 7] was 6.40 mg/L and the “T3M40° C. concentration” value [3, 7] was 6.50 mg/L. For the same molecule, the “Unsterilized T0 concentration” value ([3]; 800 ml (Table 10B)) was 6.40 mg/L, the “Unsterilized T0 concentration” value ([3]; 800 ml (Table 11A)) was 6.61 mg/L and the “Unsterilized T0 concentration” value ([3]; 800 ml (Table 11B)) was 6.61 mg/L. For the same molecule, the “T1M40° C. concentration” value [3, 8] was 5.93 mg/L, the “T3M40° C. concentration” value [3, 8] was 6.00 mg/L and the “Cycle 3 T0 concentration” value [3, 9] was 6.23 mg/L. The “T3M40° C. concentration” value [3, 9] was 6.10 mg/L, the “T6M40° C. concentration” value [3, 9] was 6.04 mg/L and the “Cycle 4 T0 concentration” value [3, 10] was 6.27 mg/L. The “T3M40° C. concentration” value [3, 10] was 5.90 mg/L, the “T6M40° C. concentration” value [3, 10] was 6.03 mg/L and the degradation during sterilization [2] was “no significant degradation”.

For `O=[Se](=O)(O)O` [Selenate, sodium selenate], the “selenium concentration during storage” value [4] was “remained stable”.

In the case of `O=[Se](O)O` [selenite, sodium selenite], the “oxygen amount sufficient to ensure stability in the trace element formulation” value [5] was “around 0.5 ppm” and the “stability after three months” value ([4]; TE solution pH 2.2 (malic acid), terminal heat sterilization, DO not strictly controlled, analysis stopped) was “lack of stability”.

With `C[Se]CC[C@H](N)C(=O)O` [selenomethionine] the “selenium concentration during storage” value [4] was “remained stable”.

For `O=C1O[C@H]([C@@H](O)CO)C(O)=C1O` [vitamin C, ascorbic acid], the “time after which instability was presented” value [6] is listed as 48 h.

For cyanocobalamin [B12 CC], the detection of cyanocobalamin ([1]; T3M40° C. (storage for 3 months at 40° C.)) was “no more cyanocobalamin can be detected” and the “detection of cyanocobalamin after 6 months” value ([3]; standard PN glucose solution, Cycles 1 and 2 (steam sterilization), FIG. 4) was “no cyanocobalamin can be detected”.
